According to the NIST ThermoML archive (doi:10.1021/je5002686):
Where “and” joins values, the source holds several entries; their conditions need not be identical. Identical values can stand only once.

Settings: Liquid, Vibrating tube method

CCOC(F)(C(F)(F)C(F)(F)C(F)(F)F)C(F)(C(F)(F)F)C(F)(F)F (stereo not given) [2-trifluoromethyl-3-ethoxydodecafluorohexane]
Settings | mass density
350 K, 40000 kPa | 1622.9 kg/m3 and 1622.8 kg/m3
350 K, 40010 kPa | 1622.7 kg/m3
350 K, 44990 kPa | 1632.7 kg/m3 and 1632.5 kg/m3
350 K, 45000 kPa | 1632.5 kg/m3
350 K, 49990 kPa | 1641.9 kg/m3 and 1641.7 kg/m3
350 K, 50000 kPa | 1641.8 kg/m3
370 K, 490 kPa | 1465.7 kg/m3 and 1465.9 kg/m3
370 K, 500 kPa | 1466 kg/m3
370 K, 1000 kPa | 1468.6 kg/m3 and 1468.4 kg/m3 and 1468.5 kg/m3
370 K, 1990 kPa | 1473.6 kg/m3 and 1473.5 kg/m3
370 K, 2000 kPa | 1473.4 kg/m3
370 K, 2990 kPa | 1478.5 kg/m3
370 K, 3000 kPa | 1478.2 kg/m3 and 1478.5 kg/m3
370 K, 3990 kPa | 1483.1 kg/m3
370 K, 4000 kPa | 1483.1 kg/m3 and 1483 kg/m3
370 K, 4990 kPa | 1487.6 kg/m3
370 K, 5000 kPa | 1487.5 kg/m3 and 1487.6 kg/m3
370 K, 10000 kPa | 1508.2 kg/m3 and 1507.9 kg/m3 and 1508.1 kg/m3
370 K, 14990 kPa | 1526 kg/m3 and 1525.8 kg/m3
370 K, 19990 kPa | 1541.7 kg/m3 and 1541.8 kg/m3
370 K, 20000 kPa | 1541.9 kg/m3
370 K, 25000 kPa | 1556.3 kg/m3 and 1556.1 kg/m3 and 1556.2 kg/m3
370 K, 30000 kPa | 1569.5 kg/m3 and 1569.2 kg/m3 and 1569.4 kg/m3
370 K, 34990 kPa | 1581.5 kg/m3
370 K, 35000 kPa | 1581.7 kg/m3 and 1581.4 kg/m3
370 K, 40000 kPa | 1593 kg/m3 and 1592.7 kg/m3 and 1592.8 kg/m3
370 K, 45000 kPa | 1603.6 kg/m3 and 1603.3 kg/m3 and 1603.4 kg/m3
370 K, 49990 kPa | 1613.2 kg/m3 and 1613.4 kg/m3
370 K, 50020 kPa | 1613.6 kg/m3
390 K, 490 kPa | 1417.9 kg/m3
390 K, 500 kPa | 1417.8 kg/m3 and 1417.7 kg/m3
390 K, 990 kPa | 1420.9 kg/m3 and 1421.1 kg/m3
390 K, 1000 kPa | 1421.1 kg/m3
390 K, 1990 kPa | 1427.2 kg/m3 and 1427.4 kg/m3
390 K, 2000 kPa | 1427.1 kg/m3
390 K, 3000 kPa | 1433.2 kg/m3 and 1433.1 kg/m3
390 K, 3010 kPa | 1433.3 kg/m3
390 K, 3990 kPa | 1438.8 kg/m3 and 1438.7 kg/m3 and 1438.9 kg/m3
390 K, 5000 kPa | 1444.3 kg/m3 and 1444.1 kg/m3 and 1444.4 kg/m3
390 K, 10000 kPa | 1468.4 kg/m3 and 1468.3 kg/m3 and 1468.5 kg/m3
390 K, 14990 kPa | 1488.9 kg/m3 and 1489 kg/m3
390 K, 15000 kPa | 1488.9 kg/m3
390 K, 19990 kPa | 1506.8 kg/m3 and 1507 kg/m3
390 K, 20000 kPa | 1507 kg/m3
390 K, 25000 kPa | 1523 kg/m3 and 1522.9 kg/m3 and 1523.1 kg/m3
390 K, 29990 kPa | 1537.6 kg/m3
390 K, 30000 kPa | 1537.6 kg/m3 and 1537.4 kg/m3
390 K, 35000 kPa | 1550.9 kg/m3 and 1550.8 kg/m3 and 1551 kg/m3
390 K, 40000 kPa | 1563.2 kg/m3 and 1563.1 kg/m3 and 1563.3 kg/m3
390 K, 44990 kPa | 1574.8 kg/m3
390 K, 45000 kPa | 1574.7 kg/m3 and 1574.6 kg/m3
390 K, 49980 kPa | 1585.3 kg/m3
390 K, 49990 kPa | 1585.5 kg/m3
410 K, 990 kPa | 1370.5 kg/m3
410 K, 3990 kPa | 1392.5 kg/m3
410 K, 4000 kPa | 1392.7 kg/m3
410 K, 4990 kPa | 1399.3 kg/m3
410 K, 10000 kPa | 1427.9 kg/m3
410 K, 15000 kPa | 1451.6 kg/m3 and 1451.5 kg/m3
410 K, 19990 kPa | 1471.8 kg/m3
410 K, 20000 kPa | 1472 kg/m3
410 K, 24990 kPa | 1489.9 kg/m3 and 1489.7 kg/m3
410 K, 29990 kPa | 1506 kg/m3
410 K, 30000 kPa | 1505.8 kg/m3
410 K, 34990 kPa | 1520.6 kg/m3
410 K, 35000 kPa | 1520.5 kg/m3
410 K, 40000 kPa | 1534 kg/m3 and 1533.9 kg/m3
410 K, 45000 kPa | 1546.4 kg/m3
410 K, 45010 kPa | 1546.3 kg/m3
410 K, 50000 kPa | 1558 kg/m3
410 K, 50020 kPa | 1557.9 kg/m3
430 K, 500 kPa | 1310.6 kg/m3 and 1310.4 kg/m3
430 K, 1000 kPa | 1316.1 kg/m3 and 1315.9 kg/m3 and 1316.2 kg/m3
430 K, 2000 kPa | 1326.2 kg/m3 and 1326 kg/m3 and 1326.3 kg/m3
430 K, 3000 kPa | 1335.6 kg/m3 and 1335.4 kg/m3 and 1335.7 kg/m3
430 K, 4000 kPa | 1344.3 kg/m3 and 1344.1 kg/m3
430 K, 4990 kPa | 1352.1 kg/m3 and 1352.4 kg/m3
430 K, 5000 kPa | 1352.4 kg/m3
430 K, 9990 kPa | 1386.6 kg/m3 and 1386.4 kg/m3
430 K, 14990 kPa | 1413.9 kg/m3
430 K, 15000 kPa | 1413.8 kg/m3 and 1414 kg/m3
430 K, 19990 kPa | 1436.8 kg/m3 and 1437 kg/m3
430 K, 20000 kPa | 1436.9 kg/m3
430 K, 24990 kPa | 1456.9 kg/m3
430 K, 25000 kPa | 1456.9 kg/m3 and 1456.8 kg/m3
430 K, 29990 kPa | 1474.6 kg/m3
430 K, 30000 kPa | 1474.7 kg/m3
430 K, 30010 kPa | 1474.5 kg/m3
430 K, 34990 kPa | 1490.4 kg/m3
430 K, 35000 kPa | 1490.6 kg/m3
430 K, 40000 kPa | 1505.2 kg/m3 and 1505 kg/m3
430 K, 40010 kPa | 1505.2 kg/m3
430 K, 45000 kPa | 1518.6 kg/m3 and 1518.4 kg/m3
430 K, 49960 kPa | 1530.9 kg/m3
430 K, 49990 kPa | 1531 kg/m3
430 K, 50000 kPa | 1530.9 kg/m3
450 K, 1990 kPa | 1269.4 kg/m3
450 K, 3980 kPa | 1292.6 kg/m3
450 K, 4000 kPa | 1292.9 kg/m3
450 K, 4990 kPa | 1302.9 kg/m3 and 1303 kg/m3
450 K, 10000 kPa | 1344.2 kg/m3 and 1344.1 kg/m3 and 1344.3 kg/m3
450 K, 14980 kPa | 1375.6 kg/m3
450 K, 14990 kPa | 1375.9 kg/m3
450 K, 15000 kPa | 1375.9 kg/m3
450 K, 19990 kPa | 1401.9 kg/m3 and 1401.7 kg/m3
450 K, 25000 kPa | 1424.1 kg/m3 and 1424 kg/m3
450 K, 29990 kPa | 1443.6 kg/m3 and 1443.4 kg/m3
450 K, 30000 kPa | 1443.6 kg/m3
450 K, 34990 kPa | 1460.8 kg/m3 and 1461 kg/m3
450 K, 35000 kPa | 1461 kg/m3
450 K, 39990 kPa | 1476.8 kg/m3
450 K, 40000 kPa | 1476.6 kg/m3 and 1476.8 kg/m3
450 K, 45000 kPa | 1491.2 kg/m3 and 1491.1 kg/m3
450 K, 49980 kPa | 1504.5 kg/m3
450 K, 49990 kPa | 1504.5 kg/m3
450 K, 50000 kPa | 1504.4 kg/m3
470 K, 5010 kPa | 1250.5 kg/m3
470 K, 9990 kPa | 1300.6 kg/m3 and 1300.8 kg/m3
470 K, 10010 kPa | 1300.7 kg/m3
470 K, 14990 kPa | 1337.3 kg/m3
470 K, 15000 kPa | 1337.3 kg/m3 and 1337.5 kg/m3
470 K, 19990 kPa | 1366.6 kg/m3
470 K, 20000 kPa | 1366.7 kg/m3 and 1366.9 kg/m3
470 K, 25000 kPa | 1391.4 kg/m3 and 1391.3 kg/m3 and 1391.5 kg/m3
470 K, 29990 kPa | 1412.7 kg/m3
470 K, 30000 kPa | 1412.8 kg/m3 and 1412.9 kg/m3
470 K, 34990 kPa | 1431.7 kg/m3 and 1431.8 kg/m3
470 K, 35010 kPa | 1431.7 kg/m3
470 K, 39990 kPa | 1448.8 kg/m3
470 K, 40000 kPa | 1448.7 kg/m3
470 K, 44990 kPa | 1464.2 kg/m3 and 1464.1 kg/m3
470 K, 45000 kPa | 1464.3 kg/m3
470 K, 49990 kPa | 1478.4 kg/m3
470 K, 50000 kPa | 1478.6 kg/m3
470 K, 50010 kPa | 1478.5 kg/m3
